According to patent US12509444B2, “Compounds and methods for CD73 modulation and indications therefor” (Plexxikon Inc., priority 2019, dated 2025):

What was measured:
[1] = molecular target: T1, Human CD73 (amino acid residues 27-549) (Homo sapiens, UniProt P21589); experiment: CD73 enzymatic assay (luciferase-based indirect assay, CellTiter-Glo); assay type: biochemical; conditions: 0.4 nM CD73, 150 μM AMP, 1 hour at room temperature
T1 construct: Human CD73 (amino acid residues 27-549); His tag (N); made in house; host or cells: E. coli
T1 sequence (P21589 27-549): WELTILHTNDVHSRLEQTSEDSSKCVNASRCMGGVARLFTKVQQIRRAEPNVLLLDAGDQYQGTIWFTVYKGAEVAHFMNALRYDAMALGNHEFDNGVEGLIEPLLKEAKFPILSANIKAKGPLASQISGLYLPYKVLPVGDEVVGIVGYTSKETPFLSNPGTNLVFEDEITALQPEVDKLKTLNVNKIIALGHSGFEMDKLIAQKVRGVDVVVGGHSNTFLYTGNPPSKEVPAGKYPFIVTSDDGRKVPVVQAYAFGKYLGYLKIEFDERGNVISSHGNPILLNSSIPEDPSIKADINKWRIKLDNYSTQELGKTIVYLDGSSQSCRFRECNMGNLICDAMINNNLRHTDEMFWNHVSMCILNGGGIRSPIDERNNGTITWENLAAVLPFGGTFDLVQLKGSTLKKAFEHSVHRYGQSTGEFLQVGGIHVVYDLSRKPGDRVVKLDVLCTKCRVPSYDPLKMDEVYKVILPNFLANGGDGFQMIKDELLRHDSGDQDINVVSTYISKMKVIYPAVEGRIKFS
In short: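 His-tagged human CD73 (27-549) from E. coli, 0.4 nM, with 150 μM AMP in 50 mM HEPES pH 7.4, 0.01% Tween 20; 1 h at room temperature. AMP remaining read by CellTiter-Glo 2.0 luminescence with 1 μM final ATP after 30 min. IC50 from nonlinear regression of % inhibition.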

[2] = molecular target: T2, human CD73 (Homo sapiens, UniProt P21589); experiment: Inhibitor activity against CD73 in cell based assay (CD73 expressing CHO-K1 cells); conditions: CHO-K1 cells expressing human CD73, 150 μM AMP, 4 hours of incubation; read-out: CHO-K1 CELL VARIANT: CD73 IC50
T2 construct: expressed in transfected cells
T2 sequence (P21589 27-549): T1 sequence (P21589 27-549)
In short: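 Stably transfected CHO-K1 cells expressing human CD73 (1×10^4/well) incubated 4 h with compound (8-point 1:3 titration, top 10 μM final, 0.2% DMSO) and 150 μM AMP. Residual AMP in supernatant measured by CellTiter-Glo luminescence with 1 μM ATP after 30 min at room temperature; IC50 by nonlinear regression of percent inhibition vs high/low controls.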

Row | Structure (SMILES) | IC50 [1] [µM] | IC50 [2] [µM]
1 | O=C(NC1CCCC12CC2)O[C@@H]1CCN(c2cn[nH]c(=O)c2Cl)C1 (stereo partly drawn) [P-0426, (R)-1-(5-chloro-6-oxo-1,6-dihydropyridazin-4-yl)pyrrolidin-3-yl spiro[2.4]heptan-4-ylcarbamate] | 0.001 to 10 | 0.001 to 10
2 | N#CC12CC(NC(=O)O[C@@H]3CCN(c4cn[nH]c(=O)c4Cl)C3)(C1)C2 [P-0427, (R)-1-(5-chloro-6-oxo-1,6-dihydropyridazin-4-yl)pyrrolidin-3-yl (3-cyanobicyclo[1.1.1]pentan-1-yl)carbamate] | 0.001 to 10 | 0.001 to 10
3 | O=C(NC12CC(C1)C2)O[C@@H]1CCN(c2cn[nH]c(=O)c2Cl)C1 [P-0428, (R)-1-(5-chloro-6-oxo-1,6-dihydropyridazin-4-yl)pyrrolidin-3-yl bicyclo[1.1.1]pentan-1-ylcarbamate] | 0.001 to 10 | 0.001 to 10
4 | O=C(NC1(CO)CCCC1)O[C@@H]1CCN(c2cn[nH]c(=O)c2Cl)C1 [P-0429, (R)-1-(5-chloro-6-oxo-1,6-dihydropyridazin-4-yl)pyrrolidin-3-yl (1-(hydroxymethyl)cyclopentyl) carbamate] | 0.001 to 10 | 0.001 to 10
5 | O=C(Cn1ncc(N2CC[C@@H](OC(=O)NC3CCC(F)(F)CC3)C2)c(Cl)c1=O)NO [P-0430, (R)-1-(5-chloro-1-(2-(hydroxyamino)-2-oxoethyl)-6-oxo-1,6-dihydropyridazin-4-yl)pyrrolidin-3-yl (4,4-difluorocyclohexyl)carbamate] | 0.001 to 10 | 10 to 100
6 | O=C(NC1CC(F)(F)C1)O[C@@H]1CCN(c2cnn(CCO)c(=O)c2Cl)C1 [P-0431, (R)-1-(5-chloro-1-(2-hydroxyethyl)-6-oxo-1,6-dihydropyridazin-4-yl)pyrrolidin-3-yl (3,3-difluorocyclobutyl)carbamate] | 0.001 to 10 | 0.001 to 10
7 | CC1(NC(=O)O[C@@H]2CCN(c3cn[nH]c(=O)c3Cl)C2)CC(F)(F)C1 [P-0432, (R)-1-(5-chloro-6-oxo-1,6-dihydropyridazin-4-yl)pyrrolidin-3-yl (3,3-difluoro-1-methylcyclobutyl)carbamate] | 0.001 to 10 | 0.001 to 10
8 | O=C(NC12CC(F)(C1)C2)O[C@@H]1CCN(c2cn[nH]c(=O)c2Cl)C1 [P-0433, (R)-1-(5-chloro-6-oxo-1,6-dihydropyridazin-4-yl)pyrrolidin-3-yl (3-fluorobicyclo[1.1.1]pentan-1-yl)carbamate] | 0.001 to 10 | 0.001 to 10
9 | O=C(N[C@H]1CC[C@@H](NC2CCC2)CC1)O[C@@H]1CCN(c2cn[nH]c(=O)c2Cl)C1 [P-0434, (R)-1-(5-chloro-6-oxo-1,6-dihydropyridazin-4-yl)pyrrolidin-3-yl ((1s,4S)-4-(cyclobutylamino)cyclohexyl) carbamate] | 0.001 to 10 | 0.001 to 10
10 | NCCn1ncc(N2CC[C@@H](OC(=O)N[C@H]3CC[C@@H](NC(=O)NC4CC4)CC3)C2)c(Cl)c1=O [P-0435, (R)-1-(1-(2-aminoethyl)-5-chloro-6-oxo-1,6-dihydropyridazin-4-yl)pyrrolidin-3-yl ((1s,4S)-4-(3-cyclopropylureido)cyclohexyl) carbamate] | 0.001 to 10 | 0.001 to 10
11 | C#CC1(NC(=O)O[C@@H]2CCN(c3cn[nH]c(=O)c3Cl)C2)CCCCC1 [P-0436, (R)-1-(5-chloro-6-oxo-1,6-dihydropyridazin-4-yl)pyrrolidin-3-yl (1-ethynylcyclohexyl)carbamate] | 0.001 to 10 | 0.001 to 10
12 | CC1(NC(=O)O[C@@H]2CCN(c3cn[nH]c(=O)c3Cl)C2)CCC(F)(F)CC1 [P-0437, (R)-1-(5-chloro-6-oxo-1,6-dihydropyridazin-4-yl)pyrrolidin-3-yl (4,4-difluoro-1-methylcyclohexyl)carbamate] | 0.001 to 10 | 0.001 to 10

Now from value to compound:

Row | IC50 [1] [µM] | IC50 [2] [µM] | Structure (SMILES)
13 | 0.001 to 10 | 0.001 to 10 | N#CCC1(NC(=O)O[C@@H]2CCN(c3cn[nH]c(=O)c3Cl)C2)CCCC1 [P-0411, (R)-1-(5-chloro-6-oxo-1,6-dihydropyridazin-4-yl)pyrrolidin-3-yl (1-(cyanomethyl)cyclopentyl) carbamate]
14 | 0.001 to 10 | 0.001 to 10 | Cc1csc(C2(NC(=O)O[C@@H]3CCN(c4cn[nH]c(=O)c4Cl)C3)CCCC2)n1 [P-0412, (R)-1-(5-chloro-6-oxo-1,6-dihydropyridazin-4-yl)pyrrolidin-3-yl (1-(4-methylthiazol-2-yl)cyclopentyl)carbamate]
15 | 0.001 to 10 | 0.001 to 10 | CC1(C)CCCCC1NC(=O)O[C@@H]1CCN(c2cn[nH]c(=O)c2Cl)C1 (stereo partly drawn) [P-0413, (R)-1-(5-chloro-6-oxo-1,6-dihydropyridazin-4-yl)pyrrolidin-3-yl (2,2-dimethylcyclohexyl)carbamate]
16 | 0.001 to 10 | 0.001 to 10 | NCCn1ncc(N2CC[C@@H](OC(=O)NC3CCC(F)(F)CC3)C2)c(Cl)c1=O [P-0414, (R)-1-(1-(2-aminoethyl)-5-chloro-6-oxo-1,6-dihydropyridazin-4-yl)pyrrolidin-3-yl (4,4-difluorocyclohexyl)carbamate]
17 | 0.001 to 10 | 0.001 to 10 | NCCn1ncc(N2CC[C@@H](OC(=O)NC3CCCC3)C2)c(Cl)c1=O [P-0415, (R)-1-(1-(2-aminoethyl)-5-chloro-6-oxo-1,6-dihydropyridazin-4-yl)pyrrolidin-3-yl cyclopentylcarbamate]
18 | 0.001 to 10 | 0.001 to 10 | O=C(NC1CCN(C(=O)c2cccnc2)CC1)O[C@@H]1CCN(c2cn[nH]c(=O)c2Cl)C1 [P-0416, (R)-1-(5-chloro-6-oxo-1,6-dihydropyridazin-4-yl)pyrrolidin-3-yl (1-nicotinoylpiperidin-4-yl)carbamate]
19 | 0.001 to 10 | 0.001 to 10 | O=C(NC1CCN(C(=O)c2cccnc2Cl)CC1)O[C@@H]1CCN(c2cn[nH]c(=O)c2Cl)C1 [P-0417, (R)-1-(5-chloro-6-oxo-1,6-dihydropyridazin-4-yl)pyrrolidin-3-yl (1-(2-chloronicotinoyl)piperidin-4-yl)carbamate]
20 | 0.001 to 10 | 0.001 to 10 | O=C(NC1CCN(C(=O)c2ccc(Cl)nc2)CC1)O[C@@H]1CCN(c2cn[nH]c(=O)c2Cl)C1 [P-0418, (R)-1-(5-chloro-6-oxo-1,6-dihydropyridazin-4-yl)pyrrolidin-3-yl (1-(6-chloronicotinoyl)piperidin-4-yl)carbamate]
21 | 0.001 to 10 | 0.001 to 10 | O=C(NC1CCN(C(=O)c2ccc(C(F)(F)F)nc2)CC1)O[C@@H]1CCN(c2cn[nH]c(=O)c2Cl)C1 [P-0419, (R)-1-(5-chloro-6-oxo-1,6-dihydropyridazin-4-yl)pyrrolidin-3-yl (1-(6-(trifluoromethyl)nicotinoyl)piperidin-4-yl)carbamate]
22 | 0.001 to 10 | 0.001 to 10 | O=C(NC1CCN(C(=O)Cc2ccccc2Br)CC1)O[C@@H]1CCN(c2cn[nH]c(=O)c2Cl)C1 [P-0420, (R)-1-(5-chloro-6-oxo-1,6-dihydropyridazin-4-yl)pyrrolidin-3-yl (1-(2-(2-bromophenyl)acetyl)piperidin-4-yl)carbamate]
23 | 0.001 to 10 | 0.001 to 10 | O=C(NC1CCN(C(=O)Cc2ccccc2Cl)CC1)O[C@@H]1CCN(c2cn[nH]c(=O)c2Cl)C1 [P-0421, (R)-1-(5-chloro-6-oxo-1,6-dihydropyridazin-4-yl)pyrrolidin-3-yl (1-(2-(2-chlorophenyl)acetyl)piperidin-4-yl)carbamate]
24 | 0.001 to 10 | 0.001 to 10 | O=C(NC1CCN(C(=O)Cc2c(F)cccc2Cl)CC1)O[C@@H]1CCN(c2cn[nH]c(=O)c2Cl)C1 [P-0422, (R)-1-(5-chloro-6-oxo-1,6-dihydropyridazin-4-yl)pyrrolidin-3-yl (1-(2-(2-chloro-6-fluorophenyl)acetyl)piperidin-4-yl)carbamate]
25 | 0.001 to 10 | 0.001 to 10 | O=C(NC1C2CCC1CC(O)C2)O[C@@H]1CCN(c2cn[nH]c(=O)c2Cl)C1 (stereo partly drawn) [P-0423, (R)-1-(5-chloro-6-oxo-1,6-dihydropyridazin-4-yl)pyrrolidin-3-yl (3-hydroxybicyclo[3.2.1]octan-8-yl)carbamate]
26 | 0.001 to 10 | 0.001 to 10 | O=C(NC1CCCC(F)(F)C1)O[C@@H]1CCN(c2cn[nH]c(=O)c2Cl)C1 (stereo partly drawn) [P-0424, (R)-1-(5-chloro-6-oxo-1,6-dihydropyridazin-4-yl)pyrrolidin-3-yl (3,3-difluorocyclohexyl)carbamate]
27 | 0.001 to 10 | 0.001 to 10 | CC1CCCC(NC(=O)O[C@@H]2CCN(c3cn[nH]c(=O)c3Cl)C2)C1 (stereo partly drawn) [P-0425, (R)-1-(5-chloro-6-oxo-1,6-dihydropyridazin-4-yl)pyrrolidin-3-yl (3-methylcyclohexyl)carbamate]
